This note sets out measurements from ChEMBL document CHEMBL1136282, “Design and synthesis of small chemical inhibitors containing different scaffolds for lck SH2 domain” (Bioorg Med Chem Lett, 2003).

pIC50: −log10 of the molar value. Square brackets hold non-standard residues; d marks the D form. Peptide text beside a SMILES is read from it. pY = N[C@@H](Cc1ccc(OP(=O)(O)O)cc1)C(=O)O

Usually pIC50 stands for the IC50 on a negative log10 scale, so that one unit is a factor of ten. Read a high pIC50 as a low IC50.

The target in this assay is Tyrosine-protein kinase Lck (Homo sapiens, UniProt P06239). In words: Inhibition of binding to p56 Lck tyrosine kinase SH2 domain.
Sequence of Tyrosine-protein kinase Lck (P06239 whole entry, the tested form may be a part): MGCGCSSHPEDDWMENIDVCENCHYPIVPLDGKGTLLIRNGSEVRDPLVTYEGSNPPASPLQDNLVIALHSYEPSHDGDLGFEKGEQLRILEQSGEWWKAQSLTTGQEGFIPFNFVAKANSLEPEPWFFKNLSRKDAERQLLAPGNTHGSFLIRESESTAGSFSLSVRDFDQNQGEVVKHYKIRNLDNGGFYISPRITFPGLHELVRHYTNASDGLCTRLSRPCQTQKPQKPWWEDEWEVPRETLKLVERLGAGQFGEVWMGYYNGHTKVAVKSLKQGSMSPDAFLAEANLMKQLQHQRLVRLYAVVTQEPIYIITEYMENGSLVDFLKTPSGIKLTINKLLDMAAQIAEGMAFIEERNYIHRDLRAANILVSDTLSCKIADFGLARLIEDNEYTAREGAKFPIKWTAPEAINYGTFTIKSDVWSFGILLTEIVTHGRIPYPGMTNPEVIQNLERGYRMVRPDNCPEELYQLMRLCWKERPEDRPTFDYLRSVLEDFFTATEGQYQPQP
With `O=C(/C=C/c1ccc(O)c(O)c1)N[C@H](Cc1ccc(O)c(O)c1)C(=O)O`, the negative-log IC50 (pIC50) was 4.70. As for `COC(=O)[C@@H](Cc1ccc(O)c(O)c1)NC(=O)/C=C/c1ccc(O)c(O)c1`, the figure is 3.92; as for `COC(=O)[C@@H](Cc1ccc(O)c(O)c1)NC(=O)NCc1ccc(O)c(O)c1`, 4.01. The compound `COC(=O)[C@@H](Cc1ccc(O)c(O)c1)NC/C=C/c1ccc(O)c(O)c1` had a pIC50 below 3.30.

`COC(=O)[C@@H](Cc1ccc(O)c(O)c1)N(C)C(=O)/C=C/c1ccc(O)c(O)c1` had a negative logarithm of the IC50 (pIC50) of 3.83. The figure for `COC(=O)[C@@H](Cc1ccc(O)c(O)c1)/N=C(S)\C=C\c1ccc(O)c(O)c1` is 3.79; for `CC[C@H](C)[C@H](NC(=O)[C@H](CCC(=O)O)NC(=O)[C@H](CCC(=O)O)NC(=O)[C@H](Cc1ccc(OP(=O)(O)O)cc1)NC(C)=O)C(=O)N[C@@H](CCC(=O)O)C(=O)O` (Ac-[pY]EEIE-OH) it is 5.82. As for `O=C(/C=C/c1ccc(O)c(O)c1)O[C@H](Cc1ccc(O)c(O)c1)C(=O)O` [ROSMARINIC ACID], the figure is 4.62.
